Reference: patent US20230107277A1, “SUBSTITUTED PYRIDAZINE COMPOUND” (Astellas Pharma Inc., priority 2020, published 2023)
Where a name gives a salt, the structure may show the parent alone.

tested on: IL-1β Production of THP-1; test: Test on IL-1β production of THP-1 (LPS and ATP stimulation, ELISA); type: cell-based; settings: Homo sapiens; PMA-differentiated THP-1 cells, LPS 50 ng/mL and ATP 5 mM, 2 hours
Description: 50 ng/mL of PMA (phorbol myristate acetate, SIGMA, P1585) was added to THP-1 cells, and the cells were cultured at 37° C. for 2 days. […] LPS (Lipopolysaccharide, SIMGA, L2880) and ATP (Adenosine triphosphate, SIGMA, A2383) were added to final concentrations of 50 ng/mL and 5 mM, respectively, and the cells were cultured at 37° C. for 2 hours. The supernatant was collected, and the concentration of IL-1β was measured by an ELISA method (DuoSet ELISA human IL-1β, R&D Systems, DY201). […] The IC50 value was calculated by sigmoid […] model non-linear regression analysis.

Row | Structure (SMILES) | IC50
1 | Cc1c(NC[C@@H](C)O)nnc(-c2ccc(C(F)(F)F)cc2C(F)(F)F)c1C [Example 4, (2R)-1-({6-[2,4-bis(trifluoromethyl)phenyl]-4,5-dimethylpyridazin-3-yl}amino)propan-2-ol] | 210 nM
2 | Cc1c(NC[C@@H](C)O)nnc(-c2ccc(C(F)(F)F)cc2O)c1C [Example 9, 2-(6-{[(R2R)-2-hydroxypropyl]amino}-4,5-dimethylpyridazin-3-yl)-5-(trifluoromethyl)phenol] | 14 nM
3 | C[C@@H](O)CNc1nnc(-c2ccc(C(F)(F)F)cc2C(F)(F)F)cc1C1CC1 [Example 28] | 200 nM
4 | C[C@@H](O)CNc1cc(C2CC2)c(-c2ccc(C(F)(F)F)cc2C(F)(F)F)nn1 [Example 29] | 460 nM
5 | Cc1cc(NC[C@@H](C)O)nnc1-c1cccc(F)c1O [Example 30] | 510 nM
6 | COc1cccc(-c2nnc(NC[C@@H](C)O)cc2C)c1O [Example 31] | 270 nM
7 | C[C@@H](O)CNc1cc(C2CC2)c(-c2ccc(C(F)(F)F)cc2O)nn1 [Example 32] | 11 nM
8 | Cc1cc(NC[C@@H](C)O)nnc1-c1cccc(Cl)c1O [Example 33] | 170 nM
9 | CC(=O)O[C@H](C)CNc1cc(C)c(-c2ccc(C(F)(F)F)cc2O)nn1 [Example 34] | 21 nM
10 | C[C@@H](O)CNc1nnc(-c2ccc(C(F)(F)F)cc2O)cc1N(C)C [Example 35] | 590 nM
11 | Cc1cc(NC[C@@H](C)O)nnc1-c1c(O)cccc1F [Example 36] | 620 nM
12 | C[C@@H](O)CNc1nnc(-c2ccc(C(F)(F)F)cc2O)cc1C#N [Example 37] | 33 nM
13 | C[C@@H](O)CNc1nnc(-c2ccc(C(F)(F)F)cc2O)c(C2CC2)c1C1CC1 [Example 39] | 750 nM
14 | C[C@@H](O)CNc1nnc(-c2ccc(C(F)(F)F)cc2C(F)(F)F)cc1C(=O)N1CCOCC1 [Example 40, (6-[2,4-bis(trifluoromethyl)phenyl]-3-{[(2R)-2-hydroxypropyl]amino}pyridazin-4-yl)(morpholin-4-yl)methanone] | 240 nM
15 | C[C@@H](O)CNc1nnc(-c2ccc(C(F)(F)F)cc2C(F)(F)F)cc1C(N)=O [Example 41] | 200 nM
16 | C[C@@H](O)CNc1nnc(-c2ccc(C(F)(F)F)cc2C(F)(F)F)cc1C(=O)N1CCN(C)CC1 [Example 42, (6-[2,4-bis(trifluoromethyl)phenyl]-3-{[(2R)-2-hydroxypropyl]amino}pyridazine-4-yl)(4-methylpiperazin-1-yl)methanone] | 1500 nM
17 | C[C@@H](O)CNc1nnc(-c2ccc(C(F)(F)F)cc2C(F)(F)F)cc1C(=O)N1CCO[C@@H](C)C1 [Example 43] | 860 nM
18 | C[C@@H](O)CNc1nnc(-c2ccc(C(F)(F)F)cc2C(F)(F)F)cc1C(=O)N1CCSCC1 [Example 44] | 570 nM
19 | CC(=O)N[C@H](C)CNc1ccc(-c2ccc(C(F)(F)F)cc2C(F)(F)F)nn1 [Example 45, N—[(R2R)-1-({6-[2,4-bis(trifluoromethyl)phenyl]pyridazin-3-yl}amino)propan-2-yl]acetoamide] | 530 nM
20 | O=C(NCCCCNc1ccc(-c2ccc(C(F)(F)F)cc2C(F)(F)F)nn1)C(F)F [Example 46, N-[4({6-[2,4-bis(trifluoromethyl)phenyl]pyridazin-3-yl}amino)butyl]-2,2-difluoroacetoamide] | 120 nM
21 | CC(C)C(=O)NCCCCNc1ccc(-c2ccc(C(F)(F)F)cc2C(F)(F)F)nn1 [Example 47] | 400 nM
22 | O=C(NCCCCNc1ccc(-c2ccc(C(F)(F)F)cc2C(F)(F)F)nn1)C1CC1 [Example 48] | 510 nM
23 | C[C@@H](O)CNc1nnc(-c2ccc(C(F)(F)F)cc2C(F)(F)F)cc1OC(F)F [Example 49, (2R)-1-({6-[2,4-bis(trifluoromethyl)phenyl]-4-(difluoromethoxy)pyridazin-3-yl}amino)propan-2-ol hydrochloride] | 680 nM

Second part, the compound after the results:

Row | IC50 | Structure (SMILES)
24 | 1100 nM | OCCCNc1nnc(-c2ccc(C(F)(F)F)cc2)cc1-c1ccco1 [Example 50]
25 | 990 nM | OCCCNc1cc(-c2ccco2)c(-c2ccc(C(F)(F)F)cc2)nn1 [Example 51]
26 | 470 nM | Cc1cc(NCCCO)nnc1-c1ccc(C(F)(F)F)cc1 [Example 52]
27 | 2700 nM | Cc1cc(-c2ccc(C(F)(F)F)cc2)nnc1NCCCO [Example 53]
28 | 3500 nM | OCCCNc1cc(-c2ccccc2)c(-c2ccc(C(F)(F)F)cc2C(F)(F)F)nn1 [Example 54]
29 | 5100 nM | C[C@@H](O)CNc1cc(-n2ccnc2)c(-c2ccc(C(F)(F)F)cc2C(F)(F)F)nn1 [Example 55]
30 | 2500 nM | C[C@@H]1COCCN1C(=O)c1cc(-c2ccc(C(F)(F)F)cc2C(F)(F)F)nnc1NC[C@@H](C)O [Example 56]
31 | 1600 nM | C[C@@H](O)CNc1nnc(-c2ccc(C(F)(F)F)cc2C(F)(F)F)cc1C(=O)N1CCOC[C@@H]1C [Example 57]
32 | 950 nM | C[C@@H]1CN(C(=O)c2cc(-c3ccc(C(F)(F)F)cc3C(F)(F)F)nnc2NC[C@@H](C)O)CCO1 [Example 58]
33 | 750 nM | COc1ccc(-c2nnc(NC[C@@H](C)O)cc2C)c(C(F)(F)F)c1 [Example 59]
34 | 1700 nM | COc1ccc(-c2nnc(NC[C@@H](C)O)cc2C)c(C2CC2)c1 [Example 60]
35 | 1500 nM | CC(C)c1cc(NC[C@@H](C)O)nnc1-c1ccc(C(F)(F)F)cc1C(F)(F)F [Example 61]
36 | 2100 nM | Cc1cc(NC[C@@H](C)O)nnc1-c1cc(F)ccc1O [Example 62]
37 | 33 nM | CCc1cc(NC[C@@H](C)O)nnc1-c1ccc(C(F)(F)F)cc1O [Example 64]
38 | 49 nM | Cc1c(NC[C@@H](C)O)nnc(-c2ccc(Cl)cc2O)c1C [Example 65]
39 | 47 nM | Cc1cc(NC[C@@H](C)O)nnc1-c1ccc(Cl)cc1O [Example 66]
40 | 170 nM | CCc1c(NC[C@@H](C)O)nnc(-c2ccc(C(F)(F)F)cc2O)c1CC [Example 67]
41 | 310 nM | Cc1c(NCC(C)(C)O)nnc(-c2ccc(C(F)(F)F)cc2O)c1C [Example 68, 2-{6-[(2-hydroxy-2-methylpropyl)amino]-4,5-dimethylpyridazine-3-yl}-5-(trifluoromethyl)phenol]
42 | 250 nM | COc1ccc(-c2nnc(NC[C@@H](C)O)cc2C)c(O)c1 [Example 69]
43 | 36 nM | Cc1c(NCCCO)nnc(-c2ccc(C(F)(F)F)cc2O)c1C [Example 70, 2-{6-[(3-hydroxypropyl)amino]-4,5-dimethylpyridazine-3-yl}-5-(trifluoromethyl)phenol]
44 | 38 nM | Cc1c(NCC(C)CO)nnc(-c2ccc(C(F)(F)F)cc2O)c1C (stereo not shown) [Example 71]
45 | 43 nM | Cc1c(NC[C@H](C)O)nnc(-c2ccc(C(F)(F)F)cc2O)c1C [Example 73]
46 | 35 nM | CC(=O)NCCCCNc1nnc(-c2ccc(C(F)(F)F)cc2O)c(C)c1C [Example 74]
47 | 18 nM | Cc1c(NC[C@H](C)CO)nnc(-c2ccc(C(F)(F)F)cc2O)c1C [Example 75]
48 | 89 nM | Cc1c(NCC(C)CO)nnc(-c2ccc(Cl)cc2O)c1C (stereo not shown) [Example 77]
49 | 43 nM | C[C@@H](O)CNc1cc(C2CC2)c(-c2ccc(Cl)cc2O)nn1 [Example 78]

tested on: IL-1β p17 in the cerebral spinal fluid; test: Test on IL-1β production in rat central nerve (LPS/BzATP intracisternal, CSF Western blot); settings: oral, Dose 0.3 mg/kg
Description: After 2 hours, the test compound was orally administered. After 1 hour, 50 μg/5 μL of BzATP (2′(3′)-O-(4-Benzoylbenzoyl)adenosine 5′-triphosphate triethylammonium salt, SIGMA, B6396) was intracisternally administered, and after 30 minutes, a cerebral spinal fluid was collected. The amount of IL-1β p17 in the cerebral spinal fluid was determined by a Western blotting method using an anti-IL-1β antibody (Millipore, AB1832P), and the inhibition ratio to the solvent administration group was calculated.

Row | Structure (SMILES) | IL-1β p17 inhibition ratio to the solvent administration group
50 | Cc1c(NC[C@@H](C)O)nnc(-c2ccc(C(F)(F)F)cc2O)c1C [Example 9, 2-(6-{[(R2R)-2-hydroxypropyl]amino}-4,5-dimethylpyridazin-3-yl)-5-(trifluoromethyl)phenol] | 37%

same assay, conditions: oral, Dose 1 mg/kg

Row | Structure (SMILES) | IL-1β p17 inhibition ratio to the solvent administration group
51 | Cc1c(NC[C@@H](C)O)nnc(-c2ccc(C(F)(F)F)cc2O)c1C [Example 9, 2-(6-{[(R2R)-2-hydroxypropyl]amino}-4,5-dimethylpyridazin-3-yl)-5-(trifluoromethyl)phenol] | 70%

same assay, conditions: oral, Dose 3 mg/kg

Row | Structure (SMILES) | IL-1β p17 inhibition ratio to the solvent administration group
52 | Cc1c(NC[C@@H](C)O)nnc(-c2ccc(C(F)(F)F)cc2C(F)(F)F)c1C [Example 4, (2R)-1-({6-[2,4-bis(trifluoromethyl)phenyl]-4,5-dimethylpyridazin-3-yl}amino)propan-2-ol] | 68%
53 | Cc1c(NC[C@@H](C)O)nnc(-c2ccc(C(F)(F)F)cc2O)c1C [Example 9, 2-(6-{[(R2R)-2-hydroxypropyl]amino}-4,5-dimethylpyridazin-3-yl)-5-(trifluoromethyl)phenol] | 89%

same assay, conditions: oral, Dose 10 mg/kg

Row | Structure (SMILES) | IL-1β p17 inhibition ratio to the solvent administration group
54 | Cc1c(NC[C@@H](C)O)nnc(-c2ccc(C(F)(F)F)cc2C(F)(F)F)c1C [Example 4, (2R)-1-({6-[2,4-bis(trifluoromethyl)phenyl]-4,5-dimethylpyridazin-3-yl}amino)propan-2-ol] | 93%

same assay, conditions: oral, Dose 30 mg/kg

Row | Structure (SMILES) | IL-1β p17 inhibition ratio to the solvent administration group
55 | Cc1c(NC[C@@H](C)O)nnc(-c2ccc(C(F)(F)F)cc2C(F)(F)F)c1C [Example 4, (2R)-1-({6-[2,4-bis(trifluoromethyl)phenyl]-4,5-dimethylpyridazin-3-yl}amino)propan-2-ol] | 100%
